Measured values: patent US20020010186A1, “Dihydropyrimidines and uses thereof” (Synaptic Pharmaceutical Corporation, priority 1996, published 2002)
Counter-ions that a name gives are not always drawn. Blank lines part the entries; values can stand above or below the compound they belong to.

Legend:
human α1D receptor = molecular target: T1, human α1D receptor (Homo sapiens, UniProt P25100); assay: Radioligand binding assay ([3H]prazosin) at cloned human α1D adrenergic receptor; details: membranes of LM(tk-) cells, [3H]prazosin 0.5 nM; for Ki: read-out: hα1d pKi (converted)
T1 sequence (P25100 1-572): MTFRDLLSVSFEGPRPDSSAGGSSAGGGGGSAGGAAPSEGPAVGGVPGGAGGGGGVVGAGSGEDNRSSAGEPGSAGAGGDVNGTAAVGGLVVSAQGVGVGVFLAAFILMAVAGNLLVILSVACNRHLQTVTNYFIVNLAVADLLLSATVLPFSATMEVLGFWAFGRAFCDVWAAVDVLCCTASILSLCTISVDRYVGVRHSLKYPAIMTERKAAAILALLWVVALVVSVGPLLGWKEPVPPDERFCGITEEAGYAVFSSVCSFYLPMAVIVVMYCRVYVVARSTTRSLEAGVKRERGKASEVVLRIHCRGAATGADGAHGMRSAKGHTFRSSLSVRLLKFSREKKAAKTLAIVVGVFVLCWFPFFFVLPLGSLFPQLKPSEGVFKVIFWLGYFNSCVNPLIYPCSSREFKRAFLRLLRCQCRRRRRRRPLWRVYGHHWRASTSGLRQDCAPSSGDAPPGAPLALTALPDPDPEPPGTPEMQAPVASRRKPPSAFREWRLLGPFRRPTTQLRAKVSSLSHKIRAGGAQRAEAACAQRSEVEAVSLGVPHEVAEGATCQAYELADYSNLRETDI
Experimental: (§1) These cell lines were prepared by transfecting the cloned cDNA or cloned genomic DNA or constructs containing both genomic DNA and cDNA encoding the human u-adrenergic receptors as follows:
The cells were grown, in a controlled environment ([…]., 5% CO2), as monolayers in Dulbecco's modified Eagle's Medium (GIBCO, Grand Island, N.Y.) containing 25 mM glucose and supplemented with 10% bovine calf serum, 100 units/ml penicillin g, and 100 μg/ml streptomycin sulfate.
(§2) The construct involved ligating three partial overlapping fragments: a 5′ 0.6 kb HincII genomic clone, a central 1.8 EcoRI hippocampal cDNA clone, and a 3′ 0.6Kb PstI genomic clone. The hippocampal cDNA fragment overlaps with the 5′ and 3′ genomic clones so that the HincII and PstI sites at the 5′ and 3′ ends of the cDNA clone, respectively, were utilized for ligation. This full-length clone was cloned into the KpnI site of the expression vector, using the 5′ and 3′ KpnI sites of the fragment, derived from vector (i.e., pBluescript) and 3′-untranslated sequences, respectively. Stable cell lines were selected as described above. […] Radioligand Binding Assays: Transfected cells from culture flasks were scraped into 5 ml of 5 mM Tris-HCl, 5 mM EDTA, pH 7.5, and lysed by sonication. The cell lysates were centrifuged at 1000 rpm for 5 min at 4° C., and the supernatant was centrifuged at 30,000×g for 20 min at 4° C. The pellet was suspended in 50 mM Tris-HCl, 1 mM MgCl2, and 0.1% ascorbic acid at pH 7.5. Binding of the al antagonist [^3H]prazosin (0.5 nM, specific activity 76.2 Ci/mmol) to membrane preparations of LM(tk-) cells was done in a final volume of 0.25 ml and incubated at 37° C. for 20 min. Nonspecific binding was determined in the presence of 10 μM phentolamine. The reaction was stopped by filtration through GF/B filters using a cell harvester.

human α1B receptor = molecular target: T2, human α1B receptor (Homo sapiens, UniProt P35368); assay: Radioligand binding assay ([3H]prazosin) at cloned human α1B adrenergic receptor; details: membranes of LM(tk-) cells, [3H]prazosin 0.5 nM; for Ki: read-out: hα1b pKi (converted)
T2 sequence (P35368 1-520): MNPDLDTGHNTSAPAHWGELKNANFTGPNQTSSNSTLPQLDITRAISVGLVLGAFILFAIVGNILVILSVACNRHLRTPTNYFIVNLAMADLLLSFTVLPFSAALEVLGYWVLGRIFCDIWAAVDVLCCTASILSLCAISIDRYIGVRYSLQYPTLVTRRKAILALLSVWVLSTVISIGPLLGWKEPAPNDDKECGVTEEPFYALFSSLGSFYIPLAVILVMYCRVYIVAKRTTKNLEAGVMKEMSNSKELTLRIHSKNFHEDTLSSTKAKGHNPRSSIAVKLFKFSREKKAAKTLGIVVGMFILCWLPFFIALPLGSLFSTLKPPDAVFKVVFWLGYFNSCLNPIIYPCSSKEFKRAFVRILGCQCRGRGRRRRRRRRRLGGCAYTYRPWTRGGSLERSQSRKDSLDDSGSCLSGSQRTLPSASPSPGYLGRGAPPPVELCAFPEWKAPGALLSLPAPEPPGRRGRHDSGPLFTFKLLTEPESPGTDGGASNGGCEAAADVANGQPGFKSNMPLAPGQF
Experimental: as §1
The construct involved ligating the full-length containing EcoRI brainstem cDNA fragment from λ ZapII into the expression vector. Stable cell lines were selected as described above.
as §2

human α1A receptor = molecular target: T3, human α1A receptor (Homo sapiens, UniProt P35348); assay: Radioligand binding assay ([3H]prazosin) at cloned human α1A adrenergic receptor; details: membranes of LM(tk-) cells, [3H]prazosin 0.5 nM; for Ki: read-out: hα1a pKi (converted)
T3 sequence (P35348 1-466): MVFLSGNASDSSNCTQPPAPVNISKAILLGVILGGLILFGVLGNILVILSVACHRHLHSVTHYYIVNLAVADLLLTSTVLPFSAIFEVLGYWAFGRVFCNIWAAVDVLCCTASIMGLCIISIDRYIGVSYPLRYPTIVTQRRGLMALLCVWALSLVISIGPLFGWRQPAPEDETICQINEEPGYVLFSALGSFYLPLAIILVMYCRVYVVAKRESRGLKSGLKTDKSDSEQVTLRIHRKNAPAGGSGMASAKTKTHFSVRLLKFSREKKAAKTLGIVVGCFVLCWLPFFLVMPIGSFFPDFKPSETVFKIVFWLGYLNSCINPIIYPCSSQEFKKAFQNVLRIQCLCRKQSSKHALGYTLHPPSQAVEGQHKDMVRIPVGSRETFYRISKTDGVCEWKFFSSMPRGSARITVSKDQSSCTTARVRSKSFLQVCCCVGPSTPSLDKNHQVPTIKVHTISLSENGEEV
Experimental: as §1, §2

melting point: 55 to 57 °C
Compound: COC(=O)N1C(C)=NC(C)=C(C(=O)NCCCN2CCC(C(=O)OC)(c3ccccc3)CC2)C1c1ccc(F)c(F)c1 (centres unmarked)

melting point: 53 to 57 °C
Compound: COCN1C(C)=NC(C)=C(C(=O)NCCCN2CCC(C(=O)OC)(c3ccccc3)CC2)C1c1ccc(F)c(F)c1 (centres unmarked)

melting point: 157 to 159 °C
Compound: COCC1=C(C(=O)OC)C(c2ccc(F)c(F)c2)N(C(=O)NCCCN2CCC(c3ccccc3)(c3cccs3)CC2)C(=O)N1 (centres unmarked)

melting point: 153 to 155 °C
Compound: COCC1=C(C(=O)OC)C(c2ccc(F)c(F)c2)N(C(=O)NCCCN2CCC(c3ccccc3)(c3ccco3)CC2)C(=O)N1 (centres unmarked)

melting point: 137 to 140 °C
Compound: COCC1=NC(C)=C(C(=O)OC)C(c2ccc(F)c(F)c2)N1CCCCCN1CCC(c2ccc(C)cc2)(c2ccccc2C)CC1 (centres unmarked) (as salt: HCl)

Compound: COC(=O)C1=C(C)N=C(C)N(CCCCCN2CCC(C(=O)OC)(c3ccccc3)CC2)C1c1ccc(F)c(F)c1 (centres unmarked) (as salt: HCl) [Example 17, 6-(3,4-Difluorophenyl)-1,6-dihydro-5-methoxycarbonyl-1-(5-(4-methoxycarbonyl-4-phenylpiperidin-1-yl)-pentyl)-2,4-dimethylpyrimidine]
melting point: 170 to 176 °C

melting point: 95 to 97 °C
Compound: COC(=O)C1=C(C)N=C(C)N(CCCCCNCCCc2ccccc2)C1c1ccc(F)c(F)c1 (centres unmarked) (as salt: HCl) [Example 55, 6-(3,4-Difluorophenyl)-1,6-dihydro-5-methoxycarbonyl-2,4-dimethyl-1-(5-(3-phenylpropylamino)pentyl)-pyrimidine]

melting point: 170 to 174 °C
Compound: COC(=O)C1=C(C)NC(=O)N(C(=O)NCCCN2CCC(c3ccccn3)CC2)C1c1ccc(F)c(F)c1 (centres unmarked) (as salt: hydrochloride) [Example 15, 6-(3,4-Difluorophenyl)-5-methoxycarbonyl-4-methyl-2-oxo-1-{N-[4-(2-pyridyl)-piperidine-1-yl]propyl}carboxamido-1,2,3,6-tetrahydropyrimidine Dihydrochloride]

melting point: 163 to 165 °C
Compound: COC(=O)C1=C(C)N=C(C)N(CCCC(O)CN2CCC(c3ccccn3)CC2)C1c1ccc(F)c(F)c1 (single isomer, unassigned; (+)) (as salt: HCl) [Example 56, (+)-6-(3,4-Difluorophenyl)-1,6-dihydro-1-(4-hydroxy-5-(4-(2-pyridyl)piperidin-1-yl)pentyl)-5-methoxycarbonyl-2,4-dimethylpyrimidine]

Compound: CCC1=C(C(N)=O)C(c2ccc(F)c(F)c2)N(C(=O)NCCCN2CCC(C(=O)OC)(c3ccccc3)CC2)C(=O)N1 (single isomer, unassigned; (+)) [Example 14, (+)-5-Carboxamido-6-(3,4-difluorophenyl)-4-ethyl-1-{N-[3-(4-methoxycarbonyl-4-phenylpiperidin-1-yl)propyl]}carboxamido-2-oxo-1,2,3,6-tetrhydropyrimidine]
hα1d pKi (human α1D receptor): 6.46 | hα1b pKi (human α1B receptor): 6.59 | hα1a pKi (human α1A receptor): 9.68

Ki (human α1D receptor): 0.977 µM | Ki (human α1B receptor): 0.468 µM | Ki (human α1A receptor): 0.000389 µM
Compound: COC(=O)C1=C(C)NC(=O)N(C(=O)NCCCN2CCC(c3ccccn3)CC2)C1c1ccc(F)c(F)c1 (centres unmarked) [Example 15, 6-(3,4-Difluorophenyl)-5-methoxycarbonyl-4-methyl-2-oxo-1-{N-[4-(2-pyridyl)-piperidine-1-yl]propyl}carboxamido-1,2,3,6-tetrahydropyrimidine Dihydrochloride]

Ki (human α1D receptor): 0.575 µM | Ki (human α1B receptor): 0.427 µM | Ki (human α1A receptor): 0.000288 µM
Compound: COC(=O)C1=C(C)NC(=O)N(C(=O)NCCCN2CCC(c3ccccn3)CC2)C1c1ccc2nonc2c1 (centres unmarked) [Example 16, 6-(3,4-Benzofurazan-5-yl)-5-methoxycarbonyl-4-methyl-2-oxo-1-{N-[4-(2-pyridyl)-piperidin-1-yl]propyl}carboxamido-1,2,3,6-tetrahydropyrimidine Dihydrochloride]

Compound: COC(=O)C1=C(C)N=C(C)N(CCCCCN2CCC(C(=O)OC)(c3ccccc3)CC2)C1c1ccc(F)c(F)c1 (centres unmarked) [Example 17, 6-(3,4-Difluorophenyl)-1,6-dihydro-5-methoxycarbonyl-1-(5-(4-methoxycarbonyl-4-phenylpiperidin-1-yl)-pentyl)-2,4-dimethylpyrimidine]
hα1d pKi (human α1D receptor): 6.17 | hα1b pKi (human α1B receptor): 6.32
